Measured values reported in patent publication US20110076331A1, “Use of Deuterium Oxide as an Elastase Inhibitor” (priority 2008, published 2011).

Key:
[1] = biological target: T1, human neutrophil elastase (HNE) (Homo sapiens, UniProt P08246); assay: Inhibition of AAPV conversion by human neutrophil elastase (photometric, 405 nm); format: biochemical
T1 sequence (P08246 30-267): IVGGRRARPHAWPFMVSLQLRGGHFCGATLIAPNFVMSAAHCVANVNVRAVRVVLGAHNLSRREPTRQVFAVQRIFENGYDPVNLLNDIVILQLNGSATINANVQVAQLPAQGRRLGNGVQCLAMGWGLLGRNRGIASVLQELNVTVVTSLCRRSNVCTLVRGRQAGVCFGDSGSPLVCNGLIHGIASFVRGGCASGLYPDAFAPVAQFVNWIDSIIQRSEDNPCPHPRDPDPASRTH
Method: Measurement of AAPV conversation occurred spectrophotometrically at a wavelength of 405 nm.
HNE was incubated together with the synthetic substrate N-methoxysuccinyl-Ala-Ala-Pro-Val-p-nitroanilide (AAPV). Conversion of AAPV was then determined photometrically at 405 nm. The following incubation scheme was used: • Sample 1) HNE IN D2O with AAPV in D2O; • Sample 2) HNE in D2O with AAPV in H2O; • Sample 3) HNE in H2O with AAPV in D2O; • Control: HNE in H2O with AAPV in H2O.
The enzyme and substrate were each incubated for 60 minutes with H2O or D2O before HNE and AAPV were added together. The amount of D2O in the experiments was varied over a range from 10 to 100% in order to detect the dependence of inhibition of AAPV conversion by HNE.
A half-maximum effective dose was determined at a D2O content of about 40 vol %. At 100% D2O in the mixture an inhibition of AAPV conversion of about 70% was achieved.

[2] = system: patients with type 1 sensitization and allergic rhinitis; assay: Nasal spray in allergic rhinitis; format: in vivo, human; conditions: isotonic saline using 70% D2O, 6 times a day, 14 days, vs H2O group
Method: A solution with D2O was prepared accordingly for application as nasal spray. […] The number of sneezing attacks was determined and the intensity of runny nose and nasal itching measured by visual analog scales as parameters. For this purpose a patient diary was used.
A solution with D2O was prepared according to example 21 for use as nasal spray. […] The number of sneezing attacks was determined as parameter and the intensity of runny nose and nasal itching were measured by visual analog scales. For this purpose a patient diary was used.

[3] = system: Wistar rats; assay: Animal model of allergic conjunctivitis (chicken protein); format: in vivo, rat; conditions: D2O-based isotonic saline trickled together with chicken protein
Method: A corresponding animal model was used to test the efficacy of eye drops prepared with D2O (Minami et al., Biol. Pharm. Bull 28:473-476, 2005). In 6-week-old Wistar rats an allergy to chicken protein was produced by injection of chicken protein together with alum and 10^10 B. pertussis into the soles of the feet and then a booster with chicken protein in the back area. Before the experiment the animals were kept in a climatized cage and after 10 minutes of adaptation 5 μL chicken protein solution was trickled into each eye. The animals were then transferred to an observation cage and the scratching movements in the direction of the eyes counted over a period of 20 minutes. Hyperemia and conjunctival edema were then determined.
To investigate an effect of D2O on the symptoms caused by chicken protein either H2O- or D2O-based isotonic saline was trickled together with the chicken protein in a double-blind design.

[4] = system: patients with leukocytoclastic skin vasculitis; assay: Half-side gel experiment in leukocytoclastic skin vasculitis; format: in vivo, human; conditions: D2O-containing gel on lower leg three times a day, 4 days; vs H2O gel
Method: Leukocytoclastic skin vasculitis is characterized by recurring behavior. A special feature of this dermatosis is destruction of cutaneous capillaries by an inflammatory process in which neutrophil granulocytes participate almost exclusively. To check the effect of D2O-containing gel on the extent of cutaneous lesions patients with leukocytoclastic skin vasculitis were treated in a half-side experiment. Either an H2O- or D2O-containing gel were applied in randomized fashion on the right or left lower leg three times a day. After a treatment time of 4 days the treatments was compared by means of a clinical score that evaluates the number and expression of vasculitis lesions.

[5] = system: patients with Wegener's disease; assay: D2O infusions in Wegener's granulomatosis (open study); format: in vivo, human; conditions: 500 mL isotonic saline prepared with 70% D2O infused once a day over a week in addition to individual therapy; vs conventionally treated patients
Method: Activation of neutrophil granulocytes is assigned importance in the pathogenesis of Wegener granulomatosis. The disease activity can be determined by determining proteinase 3-antineutrophil cytoplasmic antibodies (PR3-ANCA).
In patients with Wegener's disease in an open study the effect of additional infusion of 500 mL of an isotonic saline solution prepared with 70% D2O was investigated once a day over a week in addition to individual systemic therapy in five patients. Determination of PR3-ANCA in the serum before and after 1 week after the last D2O infusion served as control parameter. Five patients in whom individual therapy was used exclusively without additional infusions served as comparison. […] This permits the conclusion that systemic use of D2O for adjunctive therapy of systemic vasculites is suitable.

[6] = system: subjects with the minor form of RBA; assay: Gel treatment of recurring benign aphthosis (RBA); format: in vivo, human; conditions: D2O gel (example 1) three times a day; three days after first application
Method: Eight volunteer subjects with the minor form of RBA (diameter of round to oval erosion is 3-5 mm) at locations of the oral mucosa readily accessible to optical inspection (and especially cheek mucosa and mucosa in the lower jaw area) were randomized into two groups of four subjects each (experimental group and control group) and the size (diameter) of the aphthae (initial value) was determined precisely at 0.5 mm optically. For size determination only the gray-covered eroded surface was considered and the red edge area was not considered. The first aphthosis symptoms of the subjects in both groups were at least 2 days old and at most 4 days old. The experimental group received a D2O gel prepared according to example 1 three times a day applied with an appropriate applicator to the erosion (aphtha). It was ensured that the applied gel covered the entire surface of the aphtha plus a 2-3 mm wide edge and was allowed to act at least for 5 minutes. The control group was treated similarly with an identical dose and application of an H2O prepared according to example 1. […] For the experimental group an average reduction in diameter relative to the initial value of 30±10% can be detected and in the control group an average increase in aphthae diameter by 15±10% was observed.

[2H]O[2H] [D2O, deuterium oxide]
half-maximum effective dose (D2O content) for inhibition of AAPV conversion ([1]; D2O amount in the mixture of HNE and AAPV, 60 minutes preincubation): about 40 vol %
inhibition of AAPV conversion ([1]; at 100% D2O in the mixture): about 70%
sneezing attacks, intensity of runny nose and nasal itching (recorded parameters) [2]: significant reduction of the recorded parameters
number of scratching movements in the eye direction ([3]; after 20 minutes, vs H2O): significant reduction in the number of scratching movements
hyperemia and edema ([3]; vs H2O group): reduced
clinical score (number and expression of vasculitis lesions) [4]: distinct reduction of the clinical score
PR3-ANCA values in the serum [5]: stronger reduction of PR3-ANCA values
average reduction in aphthae diameter relative to the initial value [6]: 30±10%
